Test results reported in patent US7872052B2, “Use of heterocyclic compounds as SCCE inhibitors” (Arexis AB, priority 2003, dated 2011).
pIC50: −log10 of the molar value.

How the values were obtained:
[1] = system: Transgenic mice over-expressing human SCCE; experiment: Histological studies of skin morphology in SCCE transgenic mice after topical treatment; format: in vivo; settings: for side effects (unusually thin epidermis): day 8 histology; for Unusually thin epidermis / Morphology changes: topical once daily 8 days, day 8; for Unusually thin epidermis: mice affected/mice in group; for Morphology changes: mice with changes/mice in group
Excerpt: (§1) Transgenic mice over-expressing human SCCE under the control of the SV40 early promoter were generated as described in WO 02/062135. These transgenic mice show a pattern of SCCE-expression which is similar to the expression pattern seen in psoriasis lesions and chronic lesions in atopic dermatitis in humans, i.e. expression in suprabasal cells which increases with distance from the basal layer. The transgenic mice develop pathological skin changes with marked hyperkeratosis, increased epidermal thickness, and dermal inflammation. From the age of 8-10 weeks transgenic mice show signs of itch, the frequency of which increase with age. The increase marked changes in skin morphology including increased epidermal thickness, also causes higher transepidermal water loss.
(§2) Transgenic mice, 6-9 month of age, were treated daily with compound I-3 (2-(2-Iodo-phenyl)-6,7-dimethoxy-benzo[d][1,3]oxazin-4-one) which was identified as an SCCE inhibitor as described above during 8 days. The substance was initially dissolved in DMSO and formulated in vehicle containing 45% isopropanol, 6% 1,2-propanediol with a 1.2% final concentration of DMSO. Two different concentrations of inhibitor, 300 μM and 30 μM, were formulated.
The study contained four different treatments with 3-4 mice in each group. Each mouse used in the study had phenotypic changes typical of SCCE transgenic animals.
• high dose (300 μM) of compound I-3 • low dose (30 μM) of compound I-3 • positive control (a pharmaceutical formulation (Betnovat, Glaxo SmithKline AB) containing betametasone) • negative control, vehicle (a pharmaceutical formulation lacking active substance)
The formulations (500 μl/mouse) were applied once daily (late afternoon) on the area around the ears and on the back of the mice. Mice were treated during 8 days and measurements of transepidermal water loss (TEWL) were performed during the treatment period.
Histological studies of skin morphology were performed on sacrificed mice after the last day of treatment (day 8). Tissue samples were fixed in 4% phosphate-buffered formaldehyde for 24 h in room temperature (RT) and then embedded in paraffin using standard histological procedure. To analyze tissue morphology, embedded tissue was sectioned (5 μm) and then stained with haematoxylin and Eosin (H/E) using standard histological protocols.

[2] = molecular target: T1, Recombinant active human SCCE (Homo sapiens, UniProt P49862); experiment: SCCE Inhibitor Test (chromogenic substrate S-2586, absorbance at 405 nm); format: biochemical; settings: for pIC50: 10 min preincubation, 1 mM S-2586, 60 min, 37° C, pH 7.2; for remaining activity at 10 µM / remaining activity at 1 µM / remaining activity at 5 µM: 1 h; for remaining activity at 10 µM: 10 μM compound; for remaining activity at 1 µM: 1 μM compound; for remaining activity at 5 µM: 5 μM compound
T1 construct: made in house; host or cells: murine C127 cells transfected with a BPV vector (murine MT promoter)
T1 sequence (P49862 30-253): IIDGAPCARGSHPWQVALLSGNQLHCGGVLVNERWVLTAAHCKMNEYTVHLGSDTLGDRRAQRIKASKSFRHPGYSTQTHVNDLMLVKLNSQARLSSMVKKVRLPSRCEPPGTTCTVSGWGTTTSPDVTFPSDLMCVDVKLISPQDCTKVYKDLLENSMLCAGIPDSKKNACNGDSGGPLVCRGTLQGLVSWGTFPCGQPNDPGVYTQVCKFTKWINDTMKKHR
Method: Recombinant active human SCCE was produced essentially as described in WO 95/00651. The cDNA encoding human SCCE was introduced into a BPV vector under the control of the murine MT promoter and expressed in transfected C127 cells. The produced SCCE was purified and activated using immobilized bovine trypsin.
SCCE activity was determined using the chromogenic substrate S-2586 (MeO-Suc-Arg-Pro-Tyr-pNA) (Chromogenix, Mölndal, Sweden) by measurement of the change in absorbance at 405 nm essentially as described in WO 95/00651. Inhibitors were dissolved in DMSO and added to the reaction mixture (10 mM sodium phosphate, pH 7.2, 0.5 M NaCl, 2.5 μg/ml SCCE) at appropriate concentrations followed by incubation for 10 min before the start of the enzymatic reaction by subsequent addition of the substrate S-2586 to a final concentration of 1 mM. The change in absorbance at 405 nm after 60 min was recorded and used as a measure of SCCE activity. The assay temperature was 37° C. […] The IC50 values were used to identify compounds as SCCE inhibitors of the invention.

[3] = system: Transgenic mice over-expressing human SCCE; experiment: Transepidermal water loss (TEWL) in SCCE transgenic mice after topical treatment; format: in vivo; settings: both concentrations (30 μM and 300 μM), topical once daily, 8 days, relative to positive control Betamethasone
Excerpt: as §1
as §2, with “Two different concentrations of inhibitor, 300 μM and 30 μM, were formulated.” left out
TEWL was measured on the back of mice with an Evaporimeter from DermaLAB (Cortex Technology ApS, Hadsund, Denmark) according to manufactures protocol. […] TEWL was measured on in the morning at day 0, 3, 5 and 8 for 1 min repeated twice.

[4] = positive control formulation (Betnovat)

| SMILES | pIC50 [2] | remaining activity at 10 µM [2] [%] | remaining activity at 1 µM [2] [%] | remaining activity at 5 µM [2] [%] | side effects (unusually thin epidermis) [1] | also measured |
| --- | --- | --- | --- | --- | --- | --- |
| C[C@H]1C[C@H]2[C@@H]3CCC4=CC(=O)C=C[C@]4(C)[C@@]3(F)[C@@H](O)C[C@]2(C)[C@@]1(O)C(=O)CO [Betamethasone, reference compound] |  |  |  |  | side effects (unusually thin epidermis) found | Unusually thin epidermis [1, 4]: 3/3; Morphology changes [1, 4]: 0/3 |
| COc1cc2nc(-c3ccccc3I)oc(=O)c2cc1OC [Compound I-3, 2-(2-Iodo-phenyl)-6,7-dimethoxy-benzo[d][1,3]oxazin-4-one] | 7.00 | 0 |  |  | without the side effects | improvement of TEWL [3]: improves TEWL with approximately half the efficiency of the positive control; Unusually thin epidermis ([1]; 30 μM): 0/4; Morphology changes ([1]; 30 μM): 1/4; Unusually thin epidermis ([1]; 300 μM): 0/4; Morphology changes ([1]; 300 μM): 1/4; effects on skin morphology ([1]; both concentrations (30 μM and 300 μM), compared with vehicle group): positive effects on skin morphology to a higher degree then vehicle group |

Now from value to compound, other results behind:

| pIC50 [2] | remaining activity at 10 µM [2] [%] | remaining activity at 1 µM [2] [%] | remaining activity at 5 µM [2] [%] | SMILES | side effects (unusually thin epidermis) [1] | also measured |
| --- | --- | --- | --- | --- | --- | --- |
| 5.30 | 32 | 71 | 47 | O=c1oc(-c2ccccc2O)nc2ccccc12 [Compound I-10, 2-(2-Hydroxy-phenyl)-benzo[d][1,3]oxazin-4-one] |  |  |
|  |  | 54 | 16 | O=c1nc(-c2cccs2)oc2ccccc12 [Compound I-20, 2-Thiophen-2-yl-benzo[e][1,3]oxazin-4-one] |  |  |
| 6.30 | 1 |  |  | O=c1oc(-c2ccccc2Cl)nc2ccsc12 [II-5, 2-(2-chloro-phenyl)-4H-thieno[3,2-d][1,3]oxazin-4-one] |  |  |
